This passage reports ED50 results from patent US6177438A, “Morphinan derivatives and pharmaceutical use thereof” (priority 1993, dated 2001).

Structures can show the parent of a compound that is named as a salt.

In one assay the test system is acetic acid-induced writhing in ddy mice. The assay can be described thus: animal or person. It counts as in vivo, 5 week old ddy mice. The following applies: Mus musculus, sc, s.c. 15 minutes before acetic acid, read-out: ED50. How it is done: 5 week old ddy mice were used in this test. After intraperitoneal administration of 0.1 ml of 0.6% aqueous acetic acid per 10 g of body weight, the number of writhing reactions that occurred in 10 minutes starting 10 minutes after administration was evaluated for the indicator. The test drug was administered subcutaneously into the backs of the animals 15 minutes before administration of acetic acid.
Turning to `CN(C(=O)/C=C/c1cccnc1)[C@@H]1CC[C@@]2(O)[C@H]3Cc4ccc(O)c5c4[C@@]2(CCN3CC2CC2)[C@H]1O5.O=C(O)C(O)C(O)C(=O)O` (relative stereo) [Compound 153, 17-cyclopropylmethyl-3,14β-dihydroxy-4,5α-epoxy-6β-[N-methyl-trans-3-(3-pyridyl)acrylamido]morphinan tartrate], the 50% effective dose (ED50) turned out to be 0.13 mg/kg.

In the case of `Br.CN(C(=O)/C=C/c1cc(Br)cs1)[C@@H]1CC[C@@]2(O)[C@H]3Cc4ccc(O)c5c4[C@@]2(CCN3CC2CC2)[C@H]1O5` (relative stereo) [Compound 157, 17-cyclopropylmethyl-3,14β-dihydroxy-4,5α-epoxy-6β-[N-methyl-trans-3-(4-bromo-2-thienyl)acrylamido]morphinan hydrobromide], the ED50 worked out at 0.003 mg/kg.

On to `Cc1ccc(/C=C/C(=O)N(C)[C@@H]2CC[C@@]3(O)[C@H]4Cc5ccc(O)c6c5[C@@]3(CCN4CC3CC3)[C@H]2O6)o1.Cl` (relative stereo) [Compound 158, 17-cyclopropylmethyl-3,14β-dihydroxy-4,5α-epoxy-6β-[N-methyl-trans-3-(5-methyl-2-furyl)acrylamido]morphinan hydrochloride], for which the ED50 is 0.0071 mg/kg.

In the case of `Cc1occc1/C=C/C(=O)N(C)[C@@H]1CC[C@@]2(O)[C@H]3Cc4ccc(O)c5c4[C@@]2(CCN3CC2CC2)[C@H]1O5.Cl` (relative stereo) [Compound 159, 17-cyclopropylmethyl-3,14β-dihydroxy-4,5α-epoxy-6β-[N-methyl-trans-3-(2-methyl-3-furyl)acrylamido]morphinan hydrochloride], the 50% effective dose (ED50) was 0.0032 mg/kg.

With `CCCCN1CC[C@]23c4c5ccc(O)c4O[C@H]2[C@H](N(C)C(=O)/C=C/c2ccoc2)CC[C@@]3(O)[C@H]1C5.O=C(O)C(O)C(O)C(=O)O` (relative stereo) [Compound 163, 17-butyl-3,14β-dihydroxy-4,5α-epoxy-6β-[N-methyl-trans-3-(3-furyl)acrylamido]morphinan tartrate], the 50% effective dose (ED50) turned out to be 0.37 mg/kg.

In the case of `CN(C(=O)/C=C\c1ccoc1)[C@@H]1CC[C@@]2(O)[C@H]3Cc4ccc(O)c5c4[C@@]2(CCN3CC2CC2)[C@H]1O5.O=C(O)C(O)C(O)C(=O)O` (relative stereo) [Compound 174, 17-cyclopropylmethyl-3,14β-dihydroxy-4,5α-epoxy-6β-[N-methyl-cis-3-(3-furyl)acrylamido]morphinan tartrate], the ED50 worked out at 0.16 mg/kg.

As for `CN(C(=O)Cc1cccc(Br)c1)[C@H]1CC[C@@]2(O)[C@H]3Cc4ccc(O)c5c4[C@@]2(CCN3CC2CC2)[C@H]1O5` [Compound 26, 17-cyclopropylmethyl-3,14β-dihydroxy-4,5α-epoxy-6α-(N-methyl-3-bromophenylacetamido)morphinan.cndot.hydrobromate], the ED50 was determined as 0.099 mg/kg.

Regarding `CO[C@H](C(=O)N(C)[C@H]1CC[C@@]2(O)[C@H]3Cc4ccc(O)c5c4[C@@]2(CCN3CC2CC2)[C@H]1O5)c1ccccc1` [Compound 31, 17-cyclopropylmethyl-3,14β-dihydroxy-4,5α-epoxy-6α-[(S)-N-methylmethoxyphenylacetamido]morphinan.cndot.hydrochloride], the ED50 stood at 0.75 mg/kg.

Turning to `CN(C(=O)CCc1cccnc1)[C@H]1CC[C@@]2(O)[C@H]3Cc4ccc(O)c5c4[C@@]2(CCN3CC2CC2)[C@H]1O5` [Compound 41, 17-cyclopropylmethyl-3,14β-dihydroxy-4,5α-epoxy-6α-[N-methyl-3-(3-pyridyl)propionamido]morphinan.cndot.tartrate], the ED50 worked out at 0.39 mg/kg.

Consider `CN(C(=O)OCc1cccnc1)[C@H]1CC[C@@]2(O)[C@H]3Cc4ccc(O)c5c4[C@@]2(CCN3CC2CC2)[C@H]1O5` [Compound 44, 17-cyclopropylmethyl-4,5α-epoxy-3,14β-dihydroxy-6α-[N-methyl-(3-pyridyl)methyloxycarbamido]morphinan.cndot.tartrate], for which the ED50 is 0.084 mg/kg.

For the compound `CN(C(=O)CCC1CCCC1)[C@H]1CC[C@@]2(O)[C@H]3Cc4ccc(O)c5c4[C@@]2(CCN3CC2CC2)[C@H]1O5` [Compound 48, 17-cyclopropylmethyl-4,5α-epoxy-3,14β-dihydroxy-6α-(N-methyl-3-cyclopentylpropionamido)morphinan.cndot.tartrate], the ED50 stood at 0.019 mg/kg.

For `COCCOC(=O)N(C)[C@H]1CC[C@@]2(O)[C@H]3Cc4ccc(O)c5c4[C@@]2(CCN3CC2CC2)[C@H]1O5` [Compound 49, 17-cyclopropylmethyl-4,5α-epoxy-3,14β-dihydroxy-6α-(N-methyl-2-methoxyethoxycarbamido)morphinan.cndot.tartrate], the ED50 amounted to 0.026 mg/kg.

Consider `CCN(C(=O)Cc1ccc(Cl)c(Cl)c1)[C@@H]1CC[C@@]2(O)[C@H]3Cc4ccc(O)c5c4[C@@]2(CCN3CC2CC2)[C@H]1O5` [Compound 54, 17-cyclopropylmethyl-4,5α-epoxy-3,14β-dihydroxy-6β-(N-ethyl-3,4-dichlorophenylacetoamido)morphinan.cndot.hydrochloride], for which the ED50 was 0.72 mg/kg.

On to `CN(C(=O)Cc1ccccc1)[C@@H]1CC[C@@]2(O)[C@H]3Cc4ccc(O)c5c4[C@@]2(CCN3CC2CC2)[C@H]1O5` [Compound 55, 17-cyclopropylmethyl-3,14β-dihydroxy-4,5α-epoxy-6β-(N-methylphenylacetamido)morphinan.cndot.hydrochloride], for which the 50% effective dose (ED50) came out at 0.98 mg/kg.

`CN(C(=O)CCC1CCCC1)[C@@H]1CC[C@@]2(O)[C@H]3Cc4ccc(O)c5c4[C@@]2(CCN3CC2CC2)[C@H]1O5` [Compound 64, 17-cyclopropylmethyl-3,14β-dihydroxy-4,5α-epoxy-6β-(N-methyl-3-cyclopentylpropionamido)morphinan.cndot.tartrate]: the median effective dose (ED50) came to 0.097 mg/kg.

`COCCOC(=O)N(C)[C@@H]1CC[C@@]2(O)[C@H]3Cc4ccc(O)c5c4[C@@]2(CCN3CC2CC2)[C@H]1O5` [Compound 67, 17-cyclopropylmethyl-3,14β-dihydroxy-4,5α-epoxy-6β-(N-methyl-2-methoxyethoxycarbamido)morphinan.cndot.tartrate]: the median effective dose (ED50) was 0.36 mg/kg.

Take `CN(C(=O)/C=C/c1ccsc1)[C@@H]1CC[C@@]2(O)[C@H]3Cc4ccc(O)c5c4[C@@]2(CCN3CC2CC2)[C@H]1O5` [Compound 71, 17-cyclopropylmethyl-3,14β-dihydroxy-4,5α-epoxy-6β-[N-methyl-trans-3-(3-thienyl)acrylamido]morphinan.cndot.methanesulfonate]: the ED50 came out at 0.0042 mg/kg.

Consider `CN(C(=O)/C=C/c1ccccc1C(F)(F)F)[C@@H]1CC[C@@]2(O)[C@H]3Cc4ccc(O)c5c4[C@@]2(CCN3CC2CC2)[C@H]1O5` [Compound 72, 17-cyclopropylmethyl-3,14β-dihydroxy-4,5α-epoxy-6β-(N-methyl-2-trifluoromethylcinnamamido)morphinan.cndot.hydrochloride], for which the median effective dose (ED50) was determined as 0.18 mg/kg.

With `CN(C(=O)OCc1ccccc1)[C@H]1CC[C@@]2(O)[C@H]3Cc4cccc5c4[C@@]2(CCN3CC2CC2)[C@H]1O5` [Compound 74, 17-cyclopropylmethyl-14β-hydroxy-4,5α-epoxy-6α-(N-methylbenzyloxycarbamido)morphinan.cndot.phosphate], the ED50 worked out at 0.78 mg/kg.

For the compound `CN(C(=O)CC1CCCCC1)[C@H]1CC[C@@]2(O)[C@H]3Cc4ccc(O)c5c4[C@@]2(CCN3CC2CC2)[C@H]1O5` [Compound 85], the ED50 turned out to be 0.113 mg/kg.

In the case of `CN(C(=O)Cc1ccc([N+](=O)[O-])cc1)[C@H]1CC[C@@]2(O)[C@H]3Cc4ccc(O)c5c4[C@@]2(CCN3CC2CC2)[C@H]1O5` [Compound 87, 17-cyclopropylmethyl-3,14β-dihydroxy-4,5α-epoxy-6α-(N-methyl-4-nitrophenylacetamido)morphinan.cndot.hydrochloride], the ED50 came to 0.027 mg/kg.

`CN(C(=O)CCC1CCCCC1)[C@H]1CC[C@@]2(O)[C@H]3Cc4ccc(O)c5c4[C@@]2(CCN3CC2CC2)[C@H]1O5` [Compound 94, 17-cyclopropylmethyl-3,14β-dihydroxy-4,5α-epoxy-6α-(N-methyl-3-cyclohexylpropionamido)morphinan.cndot.hydrochloride]: the ED50 came out at 0.013 mg/kg.

With `CN(C(=O)Cc1cccc2sccc12)[C@H]1CC[C@@]2(O)[C@H]3Cc4ccc(O)c5c4[C@@]2(CCN3CC2CC2)[C@H]1O5` [Compound 106, 17-cyclopropylmethyl-3,14β-dihydroxy-4,5α-epoxy-6α-(N-methyl-4-benzo[b]thienylacetamido)morphinan.cndot.hydrochloride], the ED50 is 0.25 mg/kg.

For `CN([C@H]1CC[C@@]2(O)[C@H]3Cc4ccc(O)c5c4[C@@]2(CCN3CC2CC2)[C@H]1O5)S(=O)(=O)Cc1ccc(Cl)c(Cl)c1` [Compound 128, 17-cyclopropylmethyl-4,5α-epoxy-3,14β-dihydroxy-6α-(N-methyl-3,4-dichlorophenylmethanesulfonamido)morphinan.cndot.tartrate], the 50% effective dose (ED50) turned out to be 0.63 mg/kg.

With `CN(C(=O)NCc1ccccc1)[C@H]1CC[C@@]2(O)[C@H]3Cc4ccc(O)c5c4[C@@]2(CCN3CC2CC2)[C@H]1O5` [Compound 132, 17-Cyclopropylmethyl-3,14β-dihydroxy-4,5α-epoxy-6α-(N-methyl-N'-benzylureido)morphinan.cndot.tartrate], the ED50 was determined as 0.073 mg/kg.

In the case of `CN(C(=S)NCc1ccccc1)[C@H]1CC[C@@]2(O)[C@H]3Cc4ccc(O)c5c4[C@@]2(CCN3CC2CC2)[C@H]1O5` [Compound 133, 17-cyclopropylmethyl-3,14β-dihydroxy-4,5α-epoxy-6α-(N-methyl-N'-benzylthioureido)morphinan.cndot.tartrate], the ED50 came to 0.044 mg/kg.

Still in this assay, the particulars now being: s.c. 15 minutes before acetic acid.
In turn, `Cc1ccc(/C=C/C(=O)N(C)[C@@H]2CC[C@@]3(O)[C@H]4Cc5ccc(O)c6c5[C@@]3(CCN4CC3CC3)[C@H]2O6)s1.O=C(O)C(O)C(O)C(=O)O` (relative stereo) [Compound 160, 17-cyclopropylmethyl-3,14β-dihydroxy-4,5α-epoxy-6β-[N-methyl-trans-3-(5-methyl-2-thienyl)acrylamido]morphinan tartrate] registered a 50% effective dose (ED50) of 0.0027 mg/kg.

In general, ED50 refers to the dose that gives a 50% effect, or the effect in half of the subjects.
